Measured values reported in patent US12383511B2, “Osteogenic agents and uses thereof” (GoldPorp Pharma Limited, priority 2022, dated 2025).
pIC50: −log10 of the molar value.

Experiments:
[1] = test system: MC3T3-E1 osteoblasts; experiment: Alkaline phosphatase (ALP) activity assay in MC3T3-E1 osteoblasts; type: cell-based; conditions: for cellular alkaline phosphatase (ALP) enzyme activities: 0.5, […], 5 μM; for concentration at which increases in ALP activities were already evident / concentration of maximum increase in ALP activities: at 24 and 48 h after treatment; for effect of antagonist on F4-induced ALP activity: 5 μM F4
Method: MC3T3-E1 (passage 4-10) was maintained in Minimal Essential Media (MEM) supplemented with 10% FBS, 1 mM Sodium Pyruvate and 1% 100 ug/ml penicillin-streptomycin (100 U/ml). All reagents are from GIBCO Life Technologies.
MC3T3-E1 cells were seeded at 1×10^5 cells per well in 24-well plate. […] After treatment, cells were washed twice with PBS and lysed with buffer contains 50 mM Tris pH7.4 and 0.1% Triton X-100. After 3 freeze-thaw cycles, 40 ul of cell lysate was mixed with 50 ul of 2× Assay buffer (2-Amino-2methyl-1-propanol, pH 10.4 with 4 mM MgCl2) and 10 ul of 0.1M 4-Nitrophenyl phosphate. Incubated in 37° C. and recorded at OD410.

[2] = test system: MC3T3-E1 osteoblast cells; experiment: Osteoblast mineralization assay (Alizarin Red staining); type: cell-based; conditions: for calcium deposition at higher vs lower concentration: 5 μM compared with […]; for Alizarin Red staining (calcium deposition) in cell layers: […] or 5 μM in osteoblast mineralization medium, day 14, compared with control
Method: MC3T3-E1 cells were seeded at 1×10^5 cells per well in 24-well plates. […] […] Cells were washed twice with PBS and fixed with 10% formalin for 1 hour. Fixed cell was washed twice with distilled water and stained with 2% Alizarin Red S solution (pH 4.1) in the dark for 1 hour. Stain solution was removed and washed 4 times with distilled water.

[3] = test system: MC3T3-E1 osteoblast; experiment: mRNA expression of osteogenesis-related molecules by real-time PCR; type: cell-based; conditions: for AFT6 mRNA expression / ALP mRNA expression / ATF3 mRNA expression / Axin2 mRNA expression / BMP2 mRNA expression / BMP7 mRNA expression / BSP mRNA expression / COL1A1 mRNA expression / Fzd1 mRNA expression / Fzd2 mRNA expression / Fzd5 mRNA expression / LRP5 mRNA expression / OCN mRNA expression / OPN mRNA expression / OSN mRNA expression / OSX mRNA expression / Runx2 mRNA expression / VDR mRNA expression / Wnt3A mRNA expression / Wnt5A mRNA expression / Wnt7B mRNA expression / Wnt11 mRNA expression: BMP2 30 ng/ml, ASC 400 μM + β-GP 5 mM, F1 5 μM, F4 5 μM, relative to DMSO control, normalized to GAPDH; for levels of osteocalcin (OCN) and osteoportin (OPN) mRNA: treatment of cells with F1 or F4
Method: MC3T3-E1 cells were seeded in 6-well plates at 1×10^5 cells per well for 2 days. […] Total RNA was isolated at Day 2 and Day 4 with Trizol® reagent, 1 ug of total RNA was subjected to reverse transcription/cDNA synthesis using Superscript III first-strand synthesis system (Life Technologies).
Equal amount of cDNA generated from reverse transcription reactions were subjected to real-time PCR with SYBR® Green PCR Master Mix and primers for osteoblast differentiation markers. Primers used included: […]
Osteoblast differentiation markers genes expression were analyzed by ABI prism 7900HT Sequence Detection System and the relative level of transcript expression was quantified by ΔΔCt method.

[4] = test system: MC3T3-E1 osteoblasts; experiment: Cell viability / cell number NBB assay; type: cell-based; conditions: for cell number (NBB assay): 0.625 to 10 μM; for cell viability (NBB assay): higher concentrations (25-100 μM)
Method: MC3T3-E1 cells were seeded at 7×10^3 cells/well in 96-well plates for 2 days. […] After treatment, cells were fixed with 3% formalin and stained with NBB solution (0.05% NBB with 0.1 M sodium acetate and 9% acetic acid) at room temperature. Twenty four hours later, staining solution was removed and distilled water was added to remove free dye. Then, 100 ul of 50 mM […] was added to dissolve bound dye and recorded absorbance at 590 nm.

[5] = test system: p38; experiment: Western blot of phosphorylated p38 and total p38; type: cell-based; conditions: MC3T3-E1 osteoblasts
Method: MC3T3-E1 were lysed with 20 mM Tris pH8.0, 137 mM NaCl, 2 mM EDTA, 1% Triton X-100 and 10% Glycerol with protease inhibitor cocktail (Roche, complete). Protein concentration was determined by Bradford Protein Assay (Bio-Rad) and equal amount of proteins (30 μg) was resolved by SDS-PAGE and transferred onto PVDF membrane. The membrane was blocked with 3% BSA in Tris-buffered saline containing 0.1% Tween 20 and incubated with primary antibody (1:1000) overnight at 4° C. then incubated with HRP-linked secondary antibody for 1 h. Chemiluminescence signals were detected using enhanced chemiluminescence reagents (GE Healthcare) on X-Ray films (Fujifilm).
The levels of phosphorylated p38 and total p38 were determined by immunoblotting experiments.

[6] = test system: MDA-MB-231 cells; experiment: BrdU incorporation proliferation assay; type: cell-based; conditions: 5 μM
[7] = test system: MCF7 cells; experiment: BrdU incorporation proliferation assay; type: cell-based; conditions: for MCF7 cell proliferation induced by estradiol: 5 μM
Source text: The effect of F compounds on estrogen dependent cancer cells was investigated (FIG. 8). […] The fold increase of MCF7 proliferation was similar to that induced by estradiol treatment.

[8] = test system: estrogen responsive gene elements (ERE); experiment: pERE-Luc reporter gene assay in MC3T3-E1; type: cell-based
Method: MC3T3-E1 were seeded at 9.0×10^4 per well in 24-well plates. Twenty-four hours after cell seeding, cells were transiently transfected with 500 ng pERE-Luc (contains three repeats of estrogen-response element) by lipofectamine 2000 (Life Technologies) according to manufacturers' instruction (lipofectamine:DNA=3:1).

[9] = target: Estrogen receptor beta (Homo sapiens, UniProt Q92731); experiment: biochemical
Estrogen receptor beta, sequence (Q92731 whole entry, species assumed): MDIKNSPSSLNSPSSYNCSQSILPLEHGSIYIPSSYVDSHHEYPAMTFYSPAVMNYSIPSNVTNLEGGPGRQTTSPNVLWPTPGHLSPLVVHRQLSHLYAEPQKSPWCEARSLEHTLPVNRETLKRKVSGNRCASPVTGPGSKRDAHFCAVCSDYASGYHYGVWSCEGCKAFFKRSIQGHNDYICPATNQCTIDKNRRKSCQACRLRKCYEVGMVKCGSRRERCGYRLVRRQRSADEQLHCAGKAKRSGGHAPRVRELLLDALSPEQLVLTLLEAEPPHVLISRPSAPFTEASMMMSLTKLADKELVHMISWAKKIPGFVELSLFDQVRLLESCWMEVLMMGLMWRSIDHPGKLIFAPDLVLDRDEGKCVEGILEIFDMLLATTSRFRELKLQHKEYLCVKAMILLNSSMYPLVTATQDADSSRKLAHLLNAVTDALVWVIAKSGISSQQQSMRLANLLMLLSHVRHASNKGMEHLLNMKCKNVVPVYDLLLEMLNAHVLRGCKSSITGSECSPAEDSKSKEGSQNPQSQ

## C=Cc1cc(O)c(C)c2c1-c1ccc(O)c(C)c1CC2 [F1]
[1]
  cellular alkaline phosphatase (ALP) enzyme activities: increased the cellular alkaline phosphatase (ALP) enzyme activities in a concentration-dependent manner
  concentration at which increases in ALP activities were already evident: 0.5 µM
  concentration of maximum increase in ALP activities: 5 µM
[2]
  calcium deposition at higher vs lower concentration: More calcium deposition
  Alizarin Red staining (calcium deposition) in cell layers: significantly enhanced
[3]; D 2
  AFT6 mRNA expression: 1.5 fold
  ALP mRNA expression: 1.8 fold
  ATF3 mRNA expression: 0.8 fold
  Axin2 mRNA expression: 0.9 fold
  BMP2 mRNA expression: 1.2 fold
  BMP7 mRNA expression: 1.6 fold
  BSP mRNA expression: 2.1 fold
  COL1A1 mRNA expression: 0.7 fold
  Fzd1 mRNA expression: 3.0 fold
  Fzd2 mRNA expression: 1.0 fold
  Fzd5 mRNA expression: 0.8 fold
  LRP5 mRNA expression: 0.8 fold
  OCN mRNA expression: 29 fold
  OPN mRNA expression: 1.4 fold
  OSN mRNA expression: 0.7 fold
  OSX mRNA expression: 0.6 fold
  Runx2 mRNA expression: 1.1 fold
  VDR mRNA expression: 0.9 fold
  Wnt3A mRNA expression: 0.9 fold
  Wnt5A mRNA expression: 0.8 fold
  Wnt7B mRNA expression: 0.8 fold
  Wnt11 mRNA expression: 1.1 fold
[3]; D 4
  AFT6 mRNA expression: 1.0 fold
  ALP mRNA expression: 2.9 fold
  ATF3 mRNA expression: 1.0 fold
  Axin2 mRNA expression: 1.0 fold
  BMP2 mRNA expression: 0.7 fold
  BMP7 mRNA expression: 1.1 fold
  BSP mRNA expression: 1.3 fold
  COL1A1 mRNA expression: 0.9 fold
  Fzd1 mRNA expression: 2.6 fold
  Fzd2 mRNA expression: 0.7 fold
  Fzd5 mRNA expression: 0.6 fold
  LRP5 mRNA expression: 0.6 fold
  OCN mRNA expression: 11 fold
  OPN mRNA expression: 1.8 fold
  OSN mRNA expression: 1.6 fold
  OSX mRNA expression: 0.5 fold
  Runx2 mRNA expression: 1.2 fold
  VDR mRNA expression: 0.5 fold
  Wnt3A mRNA expression: 2.8 fold
  Wnt5A mRNA expression: 0.6 fold
  Wnt7B mRNA expression: 1.1 fold
  Wnt11 mRNA expression: 0.6 fold
[3]
  levels of osteocalcin (OCN) and osteoportin (OPN) mRNA: markedly increased
[4]
  cell number (NBB assay): slightly increased the cell number
  cell viability (NBB assay): significant loss of cell viability

## C=Cc1cc(O)cc2c1-c1ccc(O)c(C)c1CC2 [F4, effusol]
[1]
  cellular alkaline phosphatase (ALP) enzyme activities: increased the cellular alkaline phosphatase (ALP) enzyme activities in a concentration-dependent manner
  concentration at which increases in ALP activities were already evident: 0.5 µM
  concentration of maximum increase in ALP activities: 5 µM
[5]; 5 μM, 15 min and 30 min
  levels of phosphorylated p38: increased levels of phosphorylated p38
[6]
  cell proliferation induced by 17beta-estradiol in MDA-MB-231 cells (ER negative): had no effect
[2]
  Alizarin Red staining (calcium deposition) in cell layers: significantly enhanced
[7]
  MCF7 cell proliferation induced by estradiol: significantly suppress
[7]; dose of 5 μM or higher
  MCF7 cell proliferation: inhibited the proliferation
[7]; low dose of 0.3 μM
  MCF7 cell proliferation: induced MCF7 cell proliferation
[8]; 0.5-10 μM, MC3T3-E1
  transcriptional activity driven by estrogen responsive gene elements (ERE): stimulated the transcriptional activity driven by estrogen responsive gene elements (ERE) in a dose-dependent manner
[9]
  pIC50: 8.25
[3]
  mRNA of Wnt pathway members Wnt3A and frizzled 1: increases
  levels of osteocalcin (OCN) and osteoportin (OPN) mRNA: markedly increased
[3]; D 2
  AFT6 mRNA expression: 1.5 fold
  ALP mRNA expression: 2.1 fold
  ATF3 mRNA expression: 0.7 fold
  Axin2 mRNA expression: 1.1 fold
  BMP2 mRNA expression: 1.0 fold
  BMP7 mRNA expression: 1.0 fold
  BSP mRNA expression: 1.6 fold
  COL1A1 mRNA expression: 1.0 fold
  Fzd1 mRNA expression: 3.3 fold
  Fzd2 mRNA expression: 0.8 fold
  Fzd5 mRNA expression: 0.7 fold
  LRP5 mRNA expression: 0.9 fold
  OCN mRNA expression: 17 fold
  OPN mRNA expression: 1.5 fold
  OSN mRNA expression: 0.9 fold
  OSX mRNA expression: 0.6 fold
  Runx2 mRNA expression: 1.3 fold
  VDR mRNA expression: 2.1 fold
  Wnt3A mRNA expression: 0.9 fold
  Wnt5A mRNA expression: 1.0 fold
  Wnt7B mRNA expression: 0.6 fold
  Wnt11 mRNA expression: 0.8 fold
[3]; D 4
  AFT6 mRNA expression: 2.1 fold
  ALP mRNA expression: 4.6 fold
  ATF3 mRNA expression: 0.9 fold
  Axin2 mRNA expression: 1.1 fold
  BMP2 mRNA expression: 0.9 fold
  BMP7 mRNA expression: 1.3 fold
  BSP mRNA expression: 1.2 fold
  COL1A1 mRNA expression: 1.2 fold
  Fzd1 mRNA expression: 5.8 fold
  Fzd2 mRNA expression: 0.8 fold
  Fzd5 mRNA expression: 0.8 fold
  LRP5 mRNA expression: 1.0 fold
  OCN mRNA expression: 9 fold
  OPN mRNA expression: 2.7 fold
  OSN mRNA expression: 2 fold
  OSX mRNA expression: 0.6 fold
  Runx2 mRNA expression: 1.7 fold
  VDR mRNA expression: 1.6 fold
  Wnt3A mRNA expression: 1.9 fold
  Wnt5A mRNA expression: 0.8 fold
  Wnt7B mRNA expression: 0.1 fold
  Wnt11 mRNA expression: 0.4 fold
[4]
  cell number (NBB assay): slightly increased the cell number
  cell viability (NBB assay): significant loss of cell viability

## C=Cc1cc(O)cc2ccc3c(C)c(O)ccc3c12 [F5, dehydroeffusol]
[6]
  cell proliferation induced by 17beta-estradiol in MDA-MB-231 cells (ER negative): had no effect
[2]
  calcium deposition at higher vs lower concentration: More calcium deposition
[7]
  MCF7 cell proliferation induced by estradiol: significantly suppress
[7]; dose of 5 μM or higher
  MCF7 cell proliferation: inhibited the proliferation
[7]; low dose of 0.3 μM
  MCF7 cell proliferation: induced MCF7 cell proliferation

## C[C@]12CC[C@@H]3c4ccc(O)cc4C[C@@H](CCCCCCCCC[S+]([O-])CCCC(F)(F)C(F)(F)F)[C@H]3[C@@H]1CC[C@@H]2O (some centres unmarked) [ICI182780, reference compound]
[1]; day 4
  effect of antagonist on F4-induced ALP activity: no effect
[1]; day 7
  effect of antagonist on F4-induced ALP activity: inhibited
[8]; 5 μM F4, ICI182780 10 nM and 1 μM
  effect of antagonist on F4-stimulated ERE promoter activity: could be inhibited
[8]; ICI182780 10 nM and 1 μM
  effect of antagonist on estradiol-stimulated ERE-driven promoter activity: inhibited

## C[S+]([O-])c1ccc(-c2nc(-c3ccncc3)c(-c3ccc(F)cc3)[nH]2)cc1 (centres unmarked) [SB203580, reference compound]
[1]; with 5 μM F4, 2 days
  effect of MAP kinase inhibitor on F4-induced increases in ALP activity: significantly inhibited
[5]; with 5 μM F4, 15 and 30 min
  levels of phosphorylated p38 in F4-treated cells on addition of inhibitor: reduced the levels of phosphorylated p38
